pIC50: −log10 of the molar value.

The test addresses T1, Human Glucocorticoid Receptor (Homo sapiens, UniProt P04150).
T1 construct: endogenous in cells; host or cells: cytosol from IM-9 cell line
T1 sequence (P04150 1-777): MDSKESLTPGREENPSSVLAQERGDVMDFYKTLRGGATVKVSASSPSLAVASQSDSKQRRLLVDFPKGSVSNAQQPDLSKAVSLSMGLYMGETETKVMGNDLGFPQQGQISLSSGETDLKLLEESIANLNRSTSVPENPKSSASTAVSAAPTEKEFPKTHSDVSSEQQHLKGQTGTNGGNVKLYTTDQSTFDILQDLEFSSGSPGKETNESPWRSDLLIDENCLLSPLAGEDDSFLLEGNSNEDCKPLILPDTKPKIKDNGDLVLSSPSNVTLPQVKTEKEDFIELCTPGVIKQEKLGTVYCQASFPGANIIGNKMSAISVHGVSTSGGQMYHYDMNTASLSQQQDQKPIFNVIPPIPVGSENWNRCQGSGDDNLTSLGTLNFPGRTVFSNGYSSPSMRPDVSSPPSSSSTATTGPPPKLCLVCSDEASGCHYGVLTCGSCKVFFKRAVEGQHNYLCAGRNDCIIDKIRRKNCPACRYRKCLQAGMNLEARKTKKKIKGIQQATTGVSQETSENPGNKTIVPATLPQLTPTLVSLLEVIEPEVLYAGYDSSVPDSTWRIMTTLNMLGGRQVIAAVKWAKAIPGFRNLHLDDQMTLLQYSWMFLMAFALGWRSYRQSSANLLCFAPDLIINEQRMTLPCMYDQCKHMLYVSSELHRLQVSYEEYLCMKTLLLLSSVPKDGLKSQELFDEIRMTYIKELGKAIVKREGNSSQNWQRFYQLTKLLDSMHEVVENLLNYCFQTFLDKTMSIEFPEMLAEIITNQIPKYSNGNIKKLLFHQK
The test can be described thus: Competition Binding in IM-9 Human Glucocorticoid Receptor (GR IM-9). Particulars: cytosol from IM-9 cell line, 1.5 nM [3H]-Dexamethasone, 4° C. for 6 hours. As for the experimental part:
Competition Binding in IM-9 Human Glucocorticoid Receptor (GR IM-9)
Glucocorticoid receptor competition binding assays were carried out in a polypropilene 96-well plate. In each well was incubated 100 μg of cytosol from IM-9 cell line, 1.5 nM [3H]-Dexamethasone (71 Ci/mmol, 1 mCi/ml, Perkin Elmer NET1192001MC) and compounds studied and standard. Non-specific binding was determined in the presence of Triamcinolone 10 μM (Sigma Aldrich T6376).
The reaction mixture (Vt: 200 μl/well) was incubated at 4° C. for 6 hours, 180 μL was transferred to GF/B 96-well plate (Millipore, Madrid, Spain) pretreated with 0.5% of PEI and treated with binding buffer (TES 10 mM, sodium molybdate 10 mM, EDTA 1 mM, pH 7.4, 2-mercaptoethanol 20 mM, Glycerol 10%) after was filtered and washed six times with 250 μl wash buffer (TES 10 mM, sodium molybdate 10 mM, EDTA 1 mM, pH 7.4, 2-mercaptoethanol 20 mM Glycerol 10%), before measuring in a microplate beta scintillation counter (Microbeta Trilux, PerkinElmer, Madrid, Spain).
By pIC50 is commonly meant −log10 of the IC50, conventionally taken in molar units. On to `COC(=O)C1=C(C)NC(C2CC2)=C(C(=O)OCC2CC2)C1c1csc2c(C#N)cccc12` (stereo not drawn) [Example C109, 3-(cyclopropylmethyl) 5-methyl 4-(7-cyanobenzo[b]thiophen-3-yl)-2-cyclopropyl-6-methyl-1,4-dihydropyridine-3,5-dicarboxylate], for which the pIC50 is more than 7.00.
With `CC(=O)C1=C(C)NC(C)=C(C(=O)OCc2ccnc(-c3ccncc3)c2)C1c1csc2ncccc12` (stereo not drawn) [Example L12, [2,4′-bipyridin]-4-ylmethyl 5-acetyl-2,6-dimethyl-4-(thieno[2,3-b]pyridin-3-yl)-1,4-dihydropyridine-3-carboxylate] the figure was 6.00 to 7.00; with `COC(=O)C1=C(C(F)(F)F)NC(N)=C(C(=O)OCC2CC2)C1c1csc2c(C#N)cccc12` (stereo not drawn) [Example D56, 3-(Cyclopropylmethyl) 5-methyl 2-amino-4-(7-cyanobenzo[b]thiophen-3-yl)-6-(trifluoromethyl)-1,4-dihydropyridine-3,5-dicarboxylate], more than 7.00; with `CC(=O)C1=C(C)NC(C2CC2)=C(C(=O)C2CC2)C1c1csc2c(Br)cccc12` (stereo not drawn) [Example C93, 1-(4-(7-Bromobenzo[b]thiophen-3-yl)-5-(cyclopropanecarbonyl)-6-cyclopropyl-2-methyl-1,4-dihydropyridin-3-yl)ethan-1-one], 6.00 to 7.00.
Molecule `COC(=O)C1=C(NC(C)=O)NC(C)=C(C(C)=O)C1c1csc2ncc(F)cc12` (stereo not drawn) [Example D15, Methyl 2-acetamido-5-acetyl-4-(5-fluorothieno[2,3-b]pyridin-3-yl)-6-methyl-1,4-dihydropyridine-3-carboxylate] gave a pIC50 of 6.00 to 7.00.
The molecule `COC(=O)C1=C(C2CC2)NC(C)=C(C#N)C1c1csc2c(C#N)cccc12` (stereo not drawn) [Example C104, Methyl 5-cyano-4-(7-cyanobenzo[b]thiophen-3-yl)-2-cyclopropyl-6-methyl-1,4-dihydropyridine-3-carboxylate] had a pIC50 of more than 7.00.
Consider `CC(=O)C1=C(C)NC(C2CC2)=C(C(=O)OC(C)(C)c2ccccc2)C1c1csc2ncccc12` (stereo not drawn) [Example C92, 2-phenylpropan-2-yl 5-acetyl-2-cyclopropyl-6-methyl-4-(thieno[2,3-b]pyridin-3-yl)-1,4-dihydropyridine-3-carboxylate], for which the pIC50 is more than 7.00.
The same measure for `CC(=O)C1=C(C)NC(C2CC2)=C(C(=O)OCc2cccc(Cl)c2)C1c1csc2ncccc12` (stereo not drawn) [Example C94, 3-chlorobenzyl 5-acetyl-2-cyclopropyl-6-methyl-4-(thieno[2,3-b]pyridin-3-yl)-1,4-dihydropyridine-3-carboxylate]: more than 7.00; for `COC(=O)C1=C(N)NC(C2CC2)=C(C(=O)OC)C1c1csc2c(C#N)cccc12` (stereo not drawn) [Example D18, Dimethyl 2-amino-4-(7-cyanobenzo[b]thiophen-3-yl)-6-cyclopropyl-1,4-dihydropyridine-3,5-dicarboxylate]: more than 7.00; for `CC(=O)C1=C(C)NC(C2CC2)=C(C(=O)OCC2CC2)C1c1csc2c(C#N)cccc12` (stereo not drawn) [Example C101, Cyclopropylmethyl 5-acetyl-4-(7-cyanobenzo[b]thiophen-3-yl)-2-cyclopropyl-6-methyl-1,4-dihydropyridine-3-carboxylate]: more than 7.00.
Regarding `COC(=O)C1=C(C2CC2)NC(C)=C(C(C)=O)C1c1csc2c(-c3ccccc3)cccc12` (stereo not drawn) [Example N1, Methyl 5-acetyl-2-cyclopropyl-6-methyl-4-(7-phenylbenzo[b]thiophen-3-yl)-1,4-dihydropyridine-3-carboxylate], the pIC50 is not above 6.00.
The same measure for `COC(=O)C1=C(C2CC2)NC(C)=C(C(C)=O)C1c1csc2c(C3CC3)cccc12` (stereo not drawn) [Example L14, Methyl 5-acetyl-2-cyclopropyl-4-(7-cyclopropylbenzo[b]thiophen-3-yl)-6-methyl-1,4-dihydropyridine-3-carboxylate]: not above 6.00.

(Values after US11453660B2, “Androgen receptor and glucocorticoid receptor modulators” (ONCOSTELLAE, S.L., priority 2017, dated 2022).)
